Measured values reported in US8481740B2, “Imidazo[1,2 a] pyridine-6-carboxamide derivatives, their use for the treatment of colon cancer and their method of manufacture” (University of the Witwatersrand, Johannesburg, priority 2009, dated 2013).
Like-named read-outs stand apart in the source and are kept apart here. One block for each compound: values may come before it.

How the values were obtained:
HT-29 cell line = assay: MTT cell viability assay, HT-29; type: cell-based, human; settings: read-out: IC50 (molar concentration that inhibited growth by 50%), 24 hours, 5 μM to 100 μM
Description: (§1) The colon cancer cells were initially exposed to the different imidazo[1,2-a]pyridines compounds at 100 μM (final concentration in the well) at 37° C. for 24 hours using an MTT assay for cell viability quantification.
(§2) The HT-29 and Caco-2 cells were exposed to the novel imidazo[1,2-a]pyridine class of compounds according to the invention in concentrations ranging from 5 μM to 100 μM for 24 hours.
(§3) The study made use of two colonic carcinoma cell lines, namely the HT-29 and Caco-2 cell lines. The HT-29 and Caco-2 cell lines were obtained from Highveld Biological, South Africa. Both cell lines were cultured in Dulbecco's Modified Eagles Medium (DMEM) (Highveld Biological, South Africa) and supplemented with 5% heat-inactivated heat-inactivated foetal bovine serum (FBS). 1 ml 10 kU penicillin G/10 mg streptomycin sulphate (pen/strep) (Highveld Biological, South Africa) and 0.4% 100 mM sodium pyruvate per 500 ml DMEM were added after filter sterilisation.
The two colon cancer cells were counted and diluted into fresh media at concentrations of 30 000 cells/well and an aliquot of 180 μl was seeded to each well in a 96-well plate. The plates were then placed in an incubator (37° C., 5% CO2, volume fraction) and the cells were allowed to divide for a period of 24 hours.
The cells were exposed to the different classes of synthetic compounds at 100 μM (final concentration in the well) at 37° C. for 24 hours using an MTT assay for cell viability quantification. After the 24 hour incubation, the plates were removed from the incubator, and an aliquot of 50 μl 0.5% MTT (USB, USA) in 1 mM PBS (pH 7.4) was layered on the media. The plates were incubated for 2 hours at 37° C. The plates were than centrifuged at 3000 rpm (Afrox Sorvall T 6000D) for 5 minutes. Following centrifugation, the medium was very carefully aspirated. Formazan crystals were dissolved in 200 μl DMSO. The absorbance was then read at 540 nm using the Absorbance Labsystems Multiskan MS, version 2.4. The controls used in the assay consisted of i) medium alone without cells, ii) medium with or without the tested compounds and iii) medium with Camptothecin.
Compounds showing cytotoxicity at a concentration of 100 μM were further diluted to obtain an IC50 concentration. All tests were performed in triplicate.

Caco-2 cell line = assay: MTT cell viability assay, Caco-2; type: cell-based; settings: Homo sapiens, read-out: IC50 (molar concentration that inhibited growth by 50%), 24 hours, 5 μM to 100 μM
Description: as §1, §2
as §3, with “1 ml 10 kU penicillin G/10 mg streptomycin sulphate (pen/strep) (Highveld Biological, South Africa) and 0.4% 100 mM sodium pyruvate per 500 ml DMEM were added after filter sterilisation.” left out
The two colon cancer cells were counted and diluted into fresh media at concentrations of 30 000 cells/well and an aliquot of 180 μl was seeded to each well in a 96-well plate. […]
The cells were exposed to the different classes of synthetic compounds at 100 μM (final concentration in the well) at 37° C. for 24 hours using an MTT assay for cell viability quantification. […] The absorbance was then read at 540 nm using the Absorbance Labsystems Multiskan MS, version 2.4. […]

white blood cells = assay: MTT cell viability assay, white blood cells; type: cell-based
Description: Cell viability was determined by the MTT assay after the white blood cells were exposed to the novel compounds for 24 hours at an initial concentration of 100 μM. Camptothecin was used as a positive control for cytotoxicity.

caspase 3 in HT-29 cells = assay: Caspase 3 colorimetric assay, HT-29 lysates; type: cell-based, human; settings: for time of maximal caspase 3 expression / time at which high caspase 3 levels were observed: time of exposure; for initiation of apoptosis compared with camptothecin: from caspase 3 levels
Description: (§4) As it is well known that caspases play a vital role in the execution of apoptosis, the level of caspase 3 and caspase 8 enzymatic activity in the cell lysates were determined using a caspase 3 and caspase 8 colorimetric assay kit (FIGS. 3A and B). Maximal caspase 8 expression in HT-29 cells was observed within 2 hours of exposure to all the CDK compounds. […] Maximal caspase 3 expression in the HT-29 cells was observed after 8 hours of exposure to 7 and 13, and 4 hours of exposure to 12. Maximal caspase 8 expression in the HT-29 cells was observed within 2 hours of exposure to 14, 4 and 6, and within 4 hours after exposure to 3. Maximal caspase 3 expression in the HT-29 cells was observed after 2 hours of exposure to 4 and 6, and after 4 hours of exposure to 14 and 3.
(§5) The activation of caspases initiates apoptosis in mammalian cells. Caspase 3 and Caspase 8 were detected using the CPP32 and FLICE colorimetric Assay kits, respectively. The following method (obtained from Biovision research products) was performed.
(§6) The treated HT-29 and Caco-2 cells were harvested and resuspended in 50 μl of chilled cell lysis buffer and incubated on ice for 10 minutes. The cells were centrifuged for 1 minute (10000 g) and the supernatant (cytosolic extract) was transferred to a fresh tube and placed on ice. The protein concentration was assayed using the Biorad assay method. 100-200 μg protein to 50 μl cell lysis buffer was diluted for each assay. 50 μl of 2× Reaction buffer (containing 10 mM DTT) was added to each sample. 5 μl of 4 mM IETD-pNA substrate for Caspase 8 and 5 μl of 4 mM DEVD-pNA substrate for Caspase 3 was added to each sample and incubated at 37° C. for 1-2 hours. The samples were read at 405 nm in the microtiter plate reader. Time dependent studies were performed for protease activity by attaining results 2, 4, 6, 12, and 24 hours after treatment with the compounds.

Caco-2 cells = assay: JC-1 mitochondrial membrane potential flow cytometry, Caco-2; type: cell-based, human; settings: 100 μM, 24 hours
Description: (§7) The dysfunction of the mitochondria is believed to be an important step in the commitment of the cell to apoptosis. To assess whether disruption of the mitochondrial transmembrane potential (Δψ) was involved in the apoptotic action of the novel imidazo[1,2-a]pyridines, the HT-29 and Caco-2 cells were treated for 24 hours with 100 μM of the novel compounds and then analysed by flow cytometry by using the cationic fluorescent dye 5,5′,6,6′-tetrachloro-1,1′,3,3′-tetraethylbenzimidazolcarbocyanine iodide (JC-1) to measure mitochondrial membrane depolarization in intact viable cells.
(§8) When energy is released during the oxidation reactions in the mitochondrial respiratory chain, it is stored as a negative electrochemical gradient across the mitochondrial membrane. Under these situations, the mitochondrial membrane potential (Δψ) is polarized. During the early stages of apoptosis, a collapse of the Δψ which results in a depolarized Δψ, is sometimes noticed. […] The changes in Δψ have also been noticed during necrosis (depolarisation) and cell cycle arrest (hyperpolarisation). Understanding the Δψ and how it alters during apoptosis and necrosis, may assist in determining the function of the mitochondria in these and other cellular processes. […]

[1] = system: caspase 3 in Caco-2 cells; assay: Caspase 3 colorimetric assay, Caco-2 lysates; type: cell-based, human; settings: time of exposure
Description: as §4, §5, §6

HT-29 cells = settings: 100 μM, 24 hours
Description: as §7, §8

caspase 8 in HT-29 cells = assay: Caspase 8 colorimetric assay, HT-29 lysates; type: cell-based, human; settings: time of exposure
Description: as §4, §5
The treated HT-29 and Caco-2 cells were harvested and resuspended in 50 μl of chilled cell lysis buffer and incubated on ice for 10 minutes. The cells were centrifuged for 1 minute (10000 g) and the supernatant (cytosolic extract) was transferred to a fresh tube and placed on ice. […] The samples were read at 405 nm in the microtiter plate reader. […]

SMILES: CC[C@@]1(O)C(=O)OCc2c1cc1n(c2=O)Cc2cc3ccccc3nc2-1 [camptothecin, reference compound]
IC50 (HT-29 cell line; Homo sapiens): 9.99 ± 1.41 µM | IC50 (Caco-2 cell line): 9.55 ± 2.21 µM | White Blood Cell Viability % (white blood cells; 100 μM, 24 hours, MTT): 33.782 ± 2.031%

IC50 (HT-29 cell line; Homo sapiens): 22 ± 1.17 µM
SMILES: COc1ccc(-c2nc3ccc(Br)cn3c2Nc2c(C)cccc2C)c(OC)c1 [Compound 12]
White Blood Cell Viability % (white blood cells; 24 h, 100 µM): 96.311 ± 5.023% | time of maximal caspase 3 expression (caspase 3 in HT-29 cells): 4 h | cells undergoing apoptosis (JC-1), average (Caco-2 cells): 81.91%

SMILES: COc1ccc(-c2nc3ccc(-c4ccccc4)cn3c2Nc2c(C)cccc2C)cc1OC [Compound 14]
White Blood Cell Viability % (white blood cells; 24 h, 100 µM): 77.345 ± 1.005% | initiation of apoptosis compared with camptothecin (caspase 3 in HT-29 cells): earlier stage than camptothecin | time at which high caspase 3 levels were observed (caspase 3 in HT-29 cells): 2 h | time of maximal caspase 3 expression (caspase 3 in HT-29 cells): 4 h | time at which high caspase 3 levels were observed [1]: 2 h

SMILES: COc1ccc(-c2nc3ccc(Br)cn3c2Nc2c(C)cccc2C)cc1OC [Compound 6]
White Blood Cell Viability % (white blood cells; 24 h, 100 µM): 83.762 ± 1.389% | initiation of apoptosis compared with camptothecin (caspase 3 in HT-29 cells): earlier stage than camptothecin | time at which high caspase 3 levels were observed (caspase 3 in HT-29 cells): 2 h | time of maximal caspase 3 expression (caspase 3 in HT-29 cells): 2 h | time at which high caspase 3 levels were observed [1]: 2 h

SMILES: COc1ccc(OC)c(-c2nc3ccc(Br)cn3c2NCc2ccccc2)c1 [Compound 4]
White Blood Cell Viability % (white blood cells; 100 µM): 88.943 ± 1.996% | initiation of apoptosis compared with camptothecin (caspase 3 in HT-29 cells): earlier stage than camptothecin | time at which high caspase 3 levels were observed (caspase 3 in HT-29 cells): 2 h | time of maximal caspase 3 expression (caspase 3 in HT-29 cells): 2 h | time at which high caspase 3 levels were observed [1]: 2 h

IC50 (HT-29 cell line): 10 ± 2.69 µM
SMILES: COc1ccc(-c2nc3ccc(C)cn3c2Nc2c(C)cccc2C)c(OC)c1 [Compound 13]
White Blood Cell Viability % (white blood cells; 100 µM): 97.479 ± 1.178% | time of maximal caspase 3 expression (caspase 3 in HT-29 cells): 8 h

IC50 (HT-29 cell line): 9.2 ± 0.83 µM
SMILES: NC(=O)c1ccc2nc(-c3ccc(OCc4ccccc4)cc3OCc3ccccc3)c(NC3CCCCC3)n2c1 [Compound 7]
White Blood Cell Viability % (white blood cells; 100 µM): 93.834 ± 0.271% | time of maximal caspase 3 expression (caspase 3 in HT-29 cells): 8 h | cells undergoing apoptosis (JC-1) (HT-29 cells): 79.62% | healthy cells remaining after treatment (JC-1) (HT-29 cells): 20.33%

SMILES: COc1ccc(-c2nc3ccc(C)cn3c2Nc2c(C)cccc2C)cc1OC [Compound 3]
White Blood Cell Viability % (white blood cells; 100 µM): 76.176 ± 0.567% | time at which high caspase 3 levels were observed (caspase 3 in HT-29 cells): 4 h | time of maximal caspase 3 expression (caspase 3 in HT-29 cells): 4 h | time of maximal (peak) caspase 8 expression (caspase 8 in HT-29 cells): ≤ 4 h | time at which high caspase 3 levels were observed [1]: 4 h
